Entries after “also recorded” stand apart in the source; their conditions may differ.
What was measured:
BDL-operated mice = assay: BDL study: Sirius red staining of liver sections, fibrosis area; type: in vivo, C57BL/6J mice
Protocol: BDL Surgery: On Day 0 of the study, BDL surgery was performed under pentobarbital (Kyoritsu Seiyaku, Japan) anesthesia. The mouse's hair was first shaved, the abdominal cavity cut open, and the common bile duct was ligated twice with 7-0 surgical silk. The mouse's peritoneum and the skin were closed with sutures, and the mice were transferred to a clean cage (e.g., resting cage) until recovered from anesthesia. Sham operated mice had their common bile duct exposed but not ligated.
[…]: To visualize collagen deposition, Bouin's fixed liver sections were stained using picro-Sirius red solution (Waldeck, Germany). For quantitative analysis of fibrosis area, bright field images of Sirius red-stained sections were captured using a digital camera (DFC295, Leica, Germany) at 100-fold magnification, and the positive areas in 5 fields/section were measured using ImageJ software (National Institute of Health, USA).

TIMP-1 = assay: BDL study: quantitative RT-PCR of liver, TIMP-1; type: in vivo, C57BL/6J mice; conditions: BDL mice liver
Protocol: (§1) Quantitative RT-PCR: Total ribonucleic acid (RNA) was extracted from liver samples using RNAiso (Takara Bio, Japan) according to the manufacturer's instructions. One μg of RNA was reverse-transcribed using a reaction mixture containing 4.4 mM magnesium chloride (MgCl2) (F. Hoffmann-La Roche, Switzerland), 40 U RNase inhibitor (Toyobo, Japan), 0.5 mM dNTP (Promega, USA), 6.28 μM random hexamer (Promega), 5× first strand buffer (Promega), 10 mM dithiothreitol (Invitrogen, USA) and 200 U MMLV-RT (Invitrogen) in a final volume of 20 μL. The reaction was carried out for 1 hour at 37° C., followed by 5 minutes at 99° C. Real-time PCR was performed using real-time PCR DICE and TB Green™ Premix Ex Taq™ II (Takara Bio). To calculate the relative mRNA expression level, the expression of each gene (α-SMA, TIMP-1, TGF-β and Collagen Type 1) was normalized to that of reference gene 36B4 (gene symbol: Rplp0). Information regarding the PCR-primer sets and the plate layout are described in Tables 8 and 9.

TGF-β = assay: BDL study: quantitative RT-PCR of liver, TGF-β; type: in vivo, C57BL/6J mice; conditions: BDL mice liver
Protocol: as §1

[1] = system: TβR-I (type I TGF-β receptor); assay: Sucrose density gradient analysis in Mv1Lu cells, TβR-I; type: cell-based, mink
Protocol: (§2) Sucrose gradient ultracentrifugation and confocal microscopy were used to identify 15-HEPE induced microdomain translocation of TGF-β receptors by sucrose. Sucrose density gradient analysis of TGF-β receptors was conducted in the plasma membranes of Mv1Lu cells (mink lung epithelial cell) treated with 100 μM of 15-HEPE and an equal volume of DMSO (dimethyl sulfoxide) at 37° C. for 0, 1, 4, and 24 hours, and the cell lysates from these treated cells were subjected to sucrose density gradient ultracentrifugation. The sucrose gradient fractions were then analyzed by Western blot analysis using anti-TβR-I (type I TGF-β receptor), anti-TβR-II (type II TGF-β receptor), anti-TβR-III (type III TGF-β receptor, betaglycan), anti-EGFR (epidermal growth factor receptor), and anti-caveolin-1 antibodies. The lipid raft/caveolae, and non-lipid raft microdomain localization of TβR-I, TβR-II, TβR-III, EGFR and caveolin-1 in the plasma membrane of untreated cells or cells treated with 15-HEPE were assessed to determine the effects of 15-HEPE on the membrane microdomain localization of the TGF-β receptors. […]

[2] = system: TβR-III (type III TGF-β receptor, betaglycan); assay: Sucrose density gradient analysis in Mv1Lu cells, TβR-III; type: cell-based, mink; conditions: 100 μM, 0, 1, 4 and 24 hours
Protocol: as §2

caveolin-1 = assay: Sucrose density gradient analysis in Mv1Lu cells, caveolin-1; type: cell-based, mink; conditions: 100 μM, 0, 1, 4 and 24 hours
Protocol: as §2

NAFLD patients = assay: Phase IIa NAFLD study: lipidomics; type: in vivo, human; conditions: 2 g
Excerpt: Exploratory analysis: The exploratory analysis included analysis of lipid and metabolic parameters including total cholesterol, triglycerides, very low-density lipoprotein cholesterol (VLDL-C), low density lipoprotein cholesterol (LDL-C), high density lipoprotein cholesterol (HDL-C), non-high-density lipoprotein cholesterol (non-HDL-C), remnant-like particle cholesterol (RLP-C), fasting glucose, insulin, free fatty acids and hemoglobin A1C (HbA1C). Additional exploratory analysis included high throughput lipidomics and proteomics. […] The study was planned to include 96 evaluable patients with 32 patients randomized per treatment group. […] Exploratory analysis: The exploratory analysis included analysis of lipid and metabolic parameters including total cholesterol, triglycerides, very low-density lipoprotein cholesterol (VLDL-C), low density lipoprotein cholesterol (LDL-C), high density lipoprotein cholesterol (HDL-C), non-high-density lipoprotein cholesterol (non-HDL-C), remnant-like particle cholesterol (RLP-C), fasting glucose, insulin, free fatty acids and hemoglobin A1C (HbA1C). Additional exploratory analysis included high throughput lipidomics and proteomics.

[3] = relative mRNA normalized to 36B4, 50 mg/kg PO QD Day 0-13
[4] = relative mRNA normalized to 36B4, 250 mg/kg PO QD Day 0-13
[5] = relative mRNA normalized to 36B4, 500 mg/kg PO QD Day 0-13

Structure (SMILES): CC/C=C\CC(O)/C=C/C=C\C/C=C\C/C=C\CCCC(=O)O (stereo not shown) [DS102, 15-hydroxy-eicosa-5Z,8Z,11Z,13E,17Z-pentaenoic acid]
- fibrosis area compared with the Vehicle group (BDL-operated mice; BDL mice liver, 500 mg/kg): tended to decrease; also recorded: trend approaching significance
- fibrosis area compared with the Vehicle group (BDL-operated mice; BDL mice, liver, 50 mg/kg): no significant difference
- Sirius red-positive area (BDL-operated mice; BDL mice, liver, 50 mg/kg PO QD Day 0-13, Day 14): 1.70 ± 0.63%
- fibrosis area compared with the Vehicle group (BDL-operated mice; BDL mice, liver, 250 mg/kg): significant decrease
- Sirius red-positive area (BDL-operated mice; BDL mice, liver, 250 mg/kg PO QD Day 0-13, Day 14): 1.06 ± 0.48%
- Sirius red-positive area (BDL-operated mice; BDL mice, liver, 500 mg/kg PO QD Day 0-13, Day 14): 1.42 ± 0.60%
- TIMP-1 mRNA expression level compared with the Vehicle group (TIMP-1; 500 mg/kg): tended to decrease; also recorded: trend approaching significance
- TIMP-1 mRNA expression level vs Vehicle group (TIMP-1; DS102 treatment groups): no significant differences
- TIMP-1 gene expression (TIMP-1; [3]): 43.82 ± 26.19
- TIMP-1 gene expression (TIMP-1; [4]): 30.65 ± 16.80
- TIMP-1 gene expression (TIMP-1; [5]): 16.09 ± 10.16
- TGF-β mRNA expression level compared with the Vehicle group (TGF-β; 500 mg/kg): significant decrease
- TGF-β mRNA expression level vs Vehicle group (TGF-β; DS102 treatment groups): no significant differences
- TGF-β gene expression (TGF-β; [3]): 1.48 ± 0.48
- TGF-β gene expression (TGF-β; [4]): 1.50 ± 0.44
- TGF-β gene expression (TGF-β; [5]): 1.00 ± 0.23
- abundance of TβR-I proteins ([1]; 100 μM, 0, 1, 4 and 24 hours): did not affect the abundance of TβR-I proteins
- translocation of TβR-I to lipid-raft ([1]; 100 μM, 24 hours): induced translocation of TβR-I to lipid-raft
- localization and abundance of TβR-III [2]: did not change the localization and abundance
- localization and abundance of caveolin-1 (caveolin-1): did not change the localization and abundance
- levels of multiple glycerophospholipid groups (NAFLD patients): significantly increased
- levels of multiple hepatotoxic diglycerides (NAFLD patients): significantly decreased

Source: patent US20200360331A1, “COMPOSITIONS COMPRISING 15-HEPE AND/OR 15-HETrE AND METHODS OF TREATING OR PREVENTING CARDIOMETABOLIC DISEASE, METABOLIC SYNDROME, AND/OR RELATED DISEASES” (Afimmune Limited, priority 2019, published 2020)
